The results in this text go back to patent US20250312352A1, “GLP-1R MODULATING COMPOUNDS” (Gilead Sciences, Inc., priority 2021, published 2025).

Each structure is given as a SMILES string.

T1 sequence (P43220 24-463): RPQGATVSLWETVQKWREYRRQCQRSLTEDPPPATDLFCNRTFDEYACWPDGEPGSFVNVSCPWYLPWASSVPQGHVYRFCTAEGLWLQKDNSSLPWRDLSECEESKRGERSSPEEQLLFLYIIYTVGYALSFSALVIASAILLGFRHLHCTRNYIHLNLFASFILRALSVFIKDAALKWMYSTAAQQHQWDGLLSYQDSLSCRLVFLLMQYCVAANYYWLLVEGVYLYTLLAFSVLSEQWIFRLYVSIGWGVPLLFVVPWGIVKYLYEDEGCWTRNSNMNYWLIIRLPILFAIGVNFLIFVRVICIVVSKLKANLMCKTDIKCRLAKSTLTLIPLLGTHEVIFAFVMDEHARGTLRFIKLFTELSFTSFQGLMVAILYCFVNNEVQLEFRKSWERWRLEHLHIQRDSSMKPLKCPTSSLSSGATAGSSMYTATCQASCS

This assay concerns the target T1, GLP-1R (Homo sapiens, UniProt P43220).
T1 construct: host or cells: CHO cells
The assay can be described thus: GLP-1R activation cAMP assay (Assay 1 or Assay 2). In kind it is cell-based. As to conditions: cAMP increase in CHO cells stably expressing GLP-1R; compounds run on one of the two cAMP assays. In a few lines:
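EC50 values come from a sigmoidal fit of HTRF-detected cAMP rise versus log agonist concentration. GLP-1R-expressing CHO cells, equilibrated 1 h at 37 °C in HBSS with HEPES and BSA, received a 10-point compound dose series for 30 min before detection.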
As a reminder, the EC50 is the concentration giving half of the maximal effect. `Cn1cc(C#Cc2ccc(COc3cccc(-c4cc(F)c(Cc5nc6ccc(C(=O)O)cc6n5C[C@@H]5CCO5)cc4F)n3)c(F)n2)cn1` [Example 362, (S)-2-(2,5-difluoro-4-(6-((2-fluoro-6-((1-methyl-1H-pyrazol-4-yl)ethynyl)pyridin-3-yl)methoxy)pyridin-2-yl)benzyl)-1-(oxetan-2-ylmethyl)-1H-benzo[d]imidazole-6-carboxylic acid]: the EC50 was found to be 0.33 nM.
`Cc1cc(Cc2nc3ccc(C(=O)O)cc3n2[C@@H]2COCC2(C)C)c(F)cc1-c1ccc(F)c(OCc2ncc(C(C)(F)F)s2)n1` [Example 337, (S)-2-(4-(6-((5-(1,1-difluoroethyl)thiazol-2-yl)methoxy)-5-fluoropyridin-2-yl)-2-fluoro-5-methylbenzyl)-1-(4,4-dimethyltetrahydrofuran-3-yl)-1H-benzo[d]imidazole-6-carboxylic acid] yielded a 50% effective concentration (EC50) of 1.2 nM.
The result for `Cn1cc(C#Cc2cnc(COc3cccc(-c4cc(F)c(Cc5nc6ccc(C(=O)O)cc6n5C[C@@H]5CCO5)cc4F)n3)nc2)cn1` [Example 154, (S)-2-(2,5-difluoro-4-(6-((5-((1-methyl-1H-pyrazol-4-yl)ethynyl)pyrimidin-2-yl)methoxy)pyridin-2-yl)benzyl)-1-(oxetan-2-ylmethyl)-1H-benzo[d]imidazole-6-carboxylic acid] reads 0.52 nM.
The molecule `NC(=O)c1csc(COc2cccc(-c3cc(F)c(Cc4nc5ccc(C(=O)O)cc5n4C[C@@H]4CCO4)cc3F)n2)c1` [Example 131, (S)-2-(4-(6-((4-carbamoylthiophen-2-yl)methoxy)pyridin-2-yl)-2,5-difluorobenzyl)-1-(oxetan-2-ylmethyl)-1H-benzo[d]imidazole-6-carboxylic acid] gave a half-maximal effective concentration (EC50) of 3.38 nM.
The result for `Cn1cc(C#Cc2cc(F)c(COc3cccc(-c4cc(F)c(Cc5nc6ccc(C(=O)O)cc6n5C[C@@H]5CCO5)cc4F)n3)s2)cn1` [Example 117, (S)-2-(2,5-difluoro-4-(6-((3-fluoro-5-((1-methyl-1H-pyrazol-4-yl)ethynyl)thiophen-2-yl)methoxy)pyridin-2-yl)benzyl)-1-(oxetan-2-ylmethyl)-1H-benzo[d]imidazole-6-carboxylic acid] reads 0.28 nM.
In the case of `CCOc1nnc(COc2cc(-c3cc(F)c(Cc4nc5ccc(C(=O)O)cc5n4[C@@H]4COCC4(C)C)cc3C)ccc2F)s1` [Example 260, (S)-1-(4,4-dimethyltetrahydrofuran-3-yl)-2-((3′-((5-ethoxy-1,3,4-thiadiazol-2-yl)methoxy)-4′,5-difluoro-2-methyl-[1,1′-biphenyl]-4-yl)methyl)-1H-benzo[d]imidazole-6-carboxylic acid], the concentration giving a half-maximal response (EC50) came to 0.254 nM.
The result for `O=C(O)c1ccc2nc(Cc3cc(F)c(-c4cccc(OCc5ncc(C#CC6CCOC6)s5)n4)cc3F)n(C[C@@H]3CCO3)c2c1` (stereo partly drawn) [Example 322, 2-(2,5-difluoro-4-(6-((5-((tetrahydrofuran-3-yl)ethynyl)thiazol-2-yl)methoxy)pyridin-2-yl)benzyl)-1-(((S)-oxetan-2-yl)methyl)-1H-benzo[d]imidazole-6-carboxylic acid] reads 0.349 nM.
The result for `Cn1ncc(C#Cc2ccc(COc3cccc(-c4cc(F)c(Cc5nc6ccc(C(=O)O)cc6n5C[C@@H]5CCO5)cc4F)n3)c(F)c2)c1C(N)=O` [Example 359, (S)-2-(4-(6-((4-((5-carbamoyl-1-methyl-1H-pyrazol-4-yl)ethynyl)-2-fluorobenzyl)oxy)pyridin-2-yl)-2,5-difluorobenzyl)-1-(oxetan-2-ylmethyl)-1H-benzo[d]imidazole-6-carboxylic acid] reads 0.051 nM; that for `O=C(O)c1ccc2nc(Cc3cc(F)c(-c4cccc(OCc5ccc(C#Cc6cccnc6)cc5F)n4)cc3F)n(C[C@@H]3CCO3)c2c1` [Example 139, (S)-2-(2,5-difluoro-4-(6-((2-fluoro-4-(pyridin-3-ylethynyl)benzyl)oxy)pyridin-2-yl)benzyl)-1-(oxetan-2-ylmethyl)-1H-benzo[d]imidazole-6-carboxylic acid], 0.28 nM.
The molecule `CCOc1nnc(COc2cccc(-c3cc(F)c(Cc4nc5c(F)cc(C(=O)O)cc5n4C[C@@H]4CCO4)cc3F)n2)s1` [Example 312, (S)-2-(4-(6-((5-ethoxy-1,3,4-thiadiazol-2-yl)methoxy)pyridin-2-yl)-2,5-difluorobenzyl)-4-fluoro-1-(oxetan-2-ylmethyl)-1H-benzo[d]imidazole-6-carboxylic acid] showed a concentration for a half-maximal effect (EC50) of 0.044 nM.
The same measure for `CCOc1nnc(COc2cccc(-c3cc(F)c(Cc4nc5ccc(C(=O)O)cc5n4[C@@H]4COCC4(C)C)c(F)c3F)n2)s1` [Example 263, (S)-1-(4,4-dimethyltetrahydrofuran-3-yl)-2-(4-(6-((5-ethoxy-1,3,4-thiadiazol-2-yl)methoxy)pyridin-2-yl)-2,3,6-trifluorobenzyl)-1H-benzo[d]imidazole-6-carboxylic acid]: 0.131 nM; for `N#CC1(Cn2cc(-c3ccc(COc4cccc(-c5cc(F)c(Cc6nc7ccc(C(=O)O)cc7n6C[C@@H]6CCO6)cc5F)n4)c(F)c3)cn2)CC1` [Example 159, (S)-2-(4-(6-((4-(1-((1-cyanocyclopropyl)methyl)-1H-pyrazol-4-yl)-2-fluorobenzyl)oxy)pyridin-2-yl)-2,5-difluorobenzyl)-1-(oxetan-2-ylmethyl)-1H-benzo[d]imidazole-6-carboxylic acid]: 0.18 nM; for `NC(=O)c1nc(COc2cccc(-c3cc(F)c(Cc4nc5ccc(C(=O)O)cc5n4C[C@@H]4CCO4)cc3F)n2)cs1` [Example 8, (S)-2-(4-(6-((2-carbamoylthiazol-4-yl)methoxy)pyridin-2-yl)-2,5-difluorobenzyl)-1-(oxetan-2-ylmethyl)-1H-benzo[d]imidazole-6-carboxylic acid]: 0.92 nM.
The same measure for `O=C(O)c1ccc2nc(Cc3cc(F)c(-c4cccc(OCc5nc6cc(Cl)ccc6s5)n4)cc3F)n(C[C@@H]3CCO3)c2c1` [Example 35, (S)-2-(4-(6-((5-chlorobenzo[d]thiazol-2-yl)methoxy)pyridin-2-yl)-2,5-difluorobenzyl)-1-(oxetan-2-ylmethyl)-1H-benzo[d]imidazole-6-carboxylic acid]: 0.22 nM; for `Cc1nc(C#Cc2cnc(COc3cccc(-c4cc(F)c(Cc5nc6ccc(C(=O)O)cc6n5C[C@@H]5CCO5)cc4F)n3)c(F)c2)cs1` [Example 291, (S)-2-(2,5-difluoro-4-(6-((3-fluoro-5-((2-methylthiazol-4-yl)ethynyl)pyridin-2-yl)methoxy)pyridin-2-yl)benzyl)-1-(oxetan-2-ylmethyl)-1H-benzo[d]imidazole-6-carboxylic acid]: 0.689 nM; for `O=C(O)c1cc(F)c2nc(Cc3ccc(-c4cccc(OCc5cc6n(n5)CCC6)n4)c(F)c3)n(C[C@@H]3CCO3)c2c1` [Example 69, (S)-2-(4-(6-((5,6-dihydro-4H-pyrrolo[1,2-b]pyrazol-2-yl)methoxy)pyridin-2-yl)-3-fluorobenzyl)-4-fluoro-1-(oxetan-2-ylmethyl)-1H-benzo[d]imidazole-6-carboxylic acid]: 2.59 nM.
The result for `CC1(C)COC[C@H]1n1c(Cc2ccc(-c3cccc(OCc4ccc(C#N)cc4F)n3)cc2F)nc2c(F)cc(C(=O)O)cc21` [Example 440, (S)-2-(4-(6-((4-cyano-2-fluorobenzyl)oxy)pyridin-2-yl)-2-fluorobenzyl)-1-(4,4-dimethyltetrahydrofuran-3-yl)-4-fluoro-1H-benzo[d]imidazole-6-carboxylic acid] reads 0.041 nM; that for `Cn1cc(C#Cc2cnc(COc3cccc(-c4cc(F)c(Cc5nc6c(F)cc(C(=O)O)cc6n5C[C@@H]5CCO5)cc4F)n3)c(F)c2)cn1` [Example 392, (S)-2-(2,5-difluoro-4-(6-((3-fluoro-5-((1-methyl-1H-pyrazol-4-yl)ethynyl)pyridin-2-yl)methoxy)pyridin-2-yl)benzyl)-4-fluoro-1-(oxetan-2-ylmethyl)-1H-benzo[d]imidazole-6-carboxylic acid], 0.206 nM.
In turn, `Cc1nnc(COc2cccc(-c3cc(F)c(Cc4nc5ccc(C(=O)O)cc5n4[C@H]4COCC4(C)C)c(F)c3F)n2)s1` (single isomer, unassigned) [Example 281B] returned an EC50 of 20.8 nM.
The result for `O=C(O)c1ccc2nc(Cc3cc(F)c(-c4cccc(OCc5cnc(C(=O)NC6CC6)cc5F)n4)cc3F)n(C[C@@H]3CCO3)c2c1` [Example 245, (S)-2-(4-(6-((6-(cyclopropylcarbamoyl)-4-fluoropyridin-3-yl)methoxy)pyridin-2-yl)-2,5-difluorobenzyl)-1-(oxetan-2-ylmethyl)-1H-benzo[d]imidazole-6-carboxylic acid] reads 0.1 nM; that for `O=C(O)c1ccc2nc(Cc3cc(F)c(-c4cccc(OCc5ccc(-c6cn(C7CCOCC7)nn6)cc5F)n4)cc3F)n(C[C@@H]3CCO3)c2c1` [Example 218, (S)-2-(2,5-difluoro-4-(6-((2-fluoro-4-(1-(tetrahydro-2H-pyran-4-yl)-1H-1,2,3-triazol-4-yl)benzyl)oxy)pyridin-2-yl)benzyl)-1-(oxetan-2-ylmethyl)-1H-benzo[d]imidazole-6-carboxylic acid], 0.8 nM.
The same measure for `CNC(=O)c1cc(Cl)c(COc2cccc(-c3cc(F)c(Cc4nc5ccc(C(=O)O)cc5n4C[C@@H]4CCO4)cc3F)c2)cn1` [Example 444, (S)-2-((3′-((4-chloro-6-(methylcarbamoyl)pyridin-3-yl)methoxy)-2,5-difluoro-[1,1′-biphenyl]-4-yl)methyl)-1-(oxetan-2-ylmethyl)-1H-benzo[d]imidazole-6-carboxylic acid]: 0.433 nM.
The same measure for `CCOc1nnc(COc2nc(-c3cc(F)c(Cc4nc5ccc(C(=O)O)cc5n4[C@@H]4COCC4(C)C)cc3F)ccc2F)s1` [Example 424, (S)-1-(4,4-dimethyltetrahydrofuran-3-yl)-2-(4-(6-((5-ethoxy-1,3,4-thiadiazol-2-yl)methoxy)-5-fluoropyridin-2-yl)-2,5-difluorobenzyl)-1H-benzo[d]imidazole-6-carboxylic acid]: 0.027 nM.
